{"source": "patent US20090036541A1", "about": "“Applicator and chemical combination for better topical anesthesia” (priority 2007, published 2009)", "origin": "cited, not measured here", "details": "compared with lidocaine"}
{"smiles": "CCCCNc1ccc(C(=O)OCCN(C)C)cc1", "note": "[tetracaine]", "values": [{"measurement": "potency relative to lidocaine", "result": "ten-fold"}]}
